According to ChEMBL document CHEMBL1201862, “PubChem BioAssay data set” (2004):
Active and inactive are the calls of the source.

Legend:
[1] = target: T1, High affinity choline transporter 1 (Homo sapiens, UniProt Q9GZV3); assay: CHT inhibitors, dose response, cell-based, 5-point CRC, membrane potential dye (AID 504840); type: functional
T1 sequence (Q9GZV3 whole entry): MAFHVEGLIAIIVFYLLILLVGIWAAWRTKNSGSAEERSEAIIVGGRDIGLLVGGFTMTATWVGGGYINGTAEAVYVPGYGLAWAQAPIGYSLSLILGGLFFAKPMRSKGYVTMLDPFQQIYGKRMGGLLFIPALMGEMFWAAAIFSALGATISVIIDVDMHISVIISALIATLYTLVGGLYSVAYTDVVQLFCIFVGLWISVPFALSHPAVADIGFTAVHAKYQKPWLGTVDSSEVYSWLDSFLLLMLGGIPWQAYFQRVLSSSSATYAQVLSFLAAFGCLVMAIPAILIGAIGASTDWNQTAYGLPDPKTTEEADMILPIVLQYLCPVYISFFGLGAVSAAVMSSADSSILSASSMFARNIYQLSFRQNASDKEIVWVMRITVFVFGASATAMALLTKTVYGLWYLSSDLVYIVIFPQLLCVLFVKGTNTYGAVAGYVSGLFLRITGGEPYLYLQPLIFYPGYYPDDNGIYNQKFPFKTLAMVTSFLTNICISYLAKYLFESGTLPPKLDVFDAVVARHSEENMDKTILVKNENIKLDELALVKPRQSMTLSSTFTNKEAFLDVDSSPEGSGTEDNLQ

[2] = target: T1, High affinity choline transporter 1; assay: CHT inhibitors, dose response, cell-based, 10-point CRC, membrane potential dye (AID 588401); type: functional;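 note: membrane potential dye fluorescence of choline-evoked depolarization via CHT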
[3] = target: T1, High affinity choline transporter 1; assay: inhibitors of CHT choline uptake, dose response, cell-based, 3H-choline uptake, CHT LV-AA trafficking mutant, CRC (AID 602208); type: functional
[4] = ARNT/TACC3 interaction disruptors, potency, confirmation, biochemical, AlphaScreen, cherry-picked samples (AID 651703); type: functional, Homo sapiens;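 note: His-tagged ARNT PAS-B domain paired with GST-TACC3 E629A dimer coactivator fragment; potency of inhibitors that break up the complex and lower AlphaScreen signal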
[5] = target: Photoreceptor-specific nuclear receptor (Homo sapiens, UniProt Q9Y5X4); type: functional, cell-based;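 note: CHO-S cells with Gal4-NCOR and VP16-NR2E3 two-hybrid luciferase reporter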
Sequence of Photoreceptor-specific nuclear receptor (Q9Y5X4 whole entry, the tested form may be a part): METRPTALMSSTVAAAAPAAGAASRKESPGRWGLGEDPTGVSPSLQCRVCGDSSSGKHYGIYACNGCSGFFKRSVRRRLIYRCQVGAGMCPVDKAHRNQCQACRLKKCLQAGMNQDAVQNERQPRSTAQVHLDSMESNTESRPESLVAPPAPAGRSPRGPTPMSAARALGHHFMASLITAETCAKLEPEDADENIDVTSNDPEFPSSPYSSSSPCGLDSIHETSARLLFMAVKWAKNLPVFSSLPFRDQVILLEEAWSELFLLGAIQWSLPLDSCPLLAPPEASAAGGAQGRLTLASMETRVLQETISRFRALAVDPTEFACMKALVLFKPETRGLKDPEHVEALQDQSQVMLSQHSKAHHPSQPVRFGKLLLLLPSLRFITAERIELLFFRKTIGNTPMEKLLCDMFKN

INS1 = assay: beta cell apoptosis inhibitors, cytokine rescue, dose response, luminescence, retest (AID 449756); type: functional, cell-based; conditions: Rattus norvegicus;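 note: cell death triggered by IL-1 beta plus TNF-alpha plus IFN-gamma mixture; protective hits raise ATP signal compared with cytokine alone wells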
Interleukin-8 = target: T2, Interleukin-8 (Homo sapiens, UniProt P10145); assay: Dose Response confirmation of uHTS small molecule hits for cystic fibrosis induced NFkb Inhibitors in a PAF-induced IL8 counterscreen.; type: functional; conditions: read-out: IC50_Mean
T2 sequence (P10145 whole entry): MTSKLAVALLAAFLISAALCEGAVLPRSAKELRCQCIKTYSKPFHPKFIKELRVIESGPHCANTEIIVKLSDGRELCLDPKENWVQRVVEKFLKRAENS

[6] = target: T3, Small ubiquitin-related modifier 1 (Homo sapiens, UniProt P63165); assay: inhibitors of SUMO1 peptide binding, dose response, biochemical, fluorescence polarization, uHTS hits (AID 624382); type: functional; conditions: read-out: IC50_Mean
T3 sequence (P63165 whole entry): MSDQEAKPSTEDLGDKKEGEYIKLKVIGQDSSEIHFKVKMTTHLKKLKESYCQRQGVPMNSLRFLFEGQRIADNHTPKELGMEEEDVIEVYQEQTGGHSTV

[7] = target: T4, Voltage-gated N-type calcium channel alpha-1B subunit/Amyloid beta A4 precursor protein-binding family A member 1 (Homo sapiens, UniProt Q00975+Q02410); type: protein assay
T4 sequence (Q00975 whole entry, the tested form may be a part): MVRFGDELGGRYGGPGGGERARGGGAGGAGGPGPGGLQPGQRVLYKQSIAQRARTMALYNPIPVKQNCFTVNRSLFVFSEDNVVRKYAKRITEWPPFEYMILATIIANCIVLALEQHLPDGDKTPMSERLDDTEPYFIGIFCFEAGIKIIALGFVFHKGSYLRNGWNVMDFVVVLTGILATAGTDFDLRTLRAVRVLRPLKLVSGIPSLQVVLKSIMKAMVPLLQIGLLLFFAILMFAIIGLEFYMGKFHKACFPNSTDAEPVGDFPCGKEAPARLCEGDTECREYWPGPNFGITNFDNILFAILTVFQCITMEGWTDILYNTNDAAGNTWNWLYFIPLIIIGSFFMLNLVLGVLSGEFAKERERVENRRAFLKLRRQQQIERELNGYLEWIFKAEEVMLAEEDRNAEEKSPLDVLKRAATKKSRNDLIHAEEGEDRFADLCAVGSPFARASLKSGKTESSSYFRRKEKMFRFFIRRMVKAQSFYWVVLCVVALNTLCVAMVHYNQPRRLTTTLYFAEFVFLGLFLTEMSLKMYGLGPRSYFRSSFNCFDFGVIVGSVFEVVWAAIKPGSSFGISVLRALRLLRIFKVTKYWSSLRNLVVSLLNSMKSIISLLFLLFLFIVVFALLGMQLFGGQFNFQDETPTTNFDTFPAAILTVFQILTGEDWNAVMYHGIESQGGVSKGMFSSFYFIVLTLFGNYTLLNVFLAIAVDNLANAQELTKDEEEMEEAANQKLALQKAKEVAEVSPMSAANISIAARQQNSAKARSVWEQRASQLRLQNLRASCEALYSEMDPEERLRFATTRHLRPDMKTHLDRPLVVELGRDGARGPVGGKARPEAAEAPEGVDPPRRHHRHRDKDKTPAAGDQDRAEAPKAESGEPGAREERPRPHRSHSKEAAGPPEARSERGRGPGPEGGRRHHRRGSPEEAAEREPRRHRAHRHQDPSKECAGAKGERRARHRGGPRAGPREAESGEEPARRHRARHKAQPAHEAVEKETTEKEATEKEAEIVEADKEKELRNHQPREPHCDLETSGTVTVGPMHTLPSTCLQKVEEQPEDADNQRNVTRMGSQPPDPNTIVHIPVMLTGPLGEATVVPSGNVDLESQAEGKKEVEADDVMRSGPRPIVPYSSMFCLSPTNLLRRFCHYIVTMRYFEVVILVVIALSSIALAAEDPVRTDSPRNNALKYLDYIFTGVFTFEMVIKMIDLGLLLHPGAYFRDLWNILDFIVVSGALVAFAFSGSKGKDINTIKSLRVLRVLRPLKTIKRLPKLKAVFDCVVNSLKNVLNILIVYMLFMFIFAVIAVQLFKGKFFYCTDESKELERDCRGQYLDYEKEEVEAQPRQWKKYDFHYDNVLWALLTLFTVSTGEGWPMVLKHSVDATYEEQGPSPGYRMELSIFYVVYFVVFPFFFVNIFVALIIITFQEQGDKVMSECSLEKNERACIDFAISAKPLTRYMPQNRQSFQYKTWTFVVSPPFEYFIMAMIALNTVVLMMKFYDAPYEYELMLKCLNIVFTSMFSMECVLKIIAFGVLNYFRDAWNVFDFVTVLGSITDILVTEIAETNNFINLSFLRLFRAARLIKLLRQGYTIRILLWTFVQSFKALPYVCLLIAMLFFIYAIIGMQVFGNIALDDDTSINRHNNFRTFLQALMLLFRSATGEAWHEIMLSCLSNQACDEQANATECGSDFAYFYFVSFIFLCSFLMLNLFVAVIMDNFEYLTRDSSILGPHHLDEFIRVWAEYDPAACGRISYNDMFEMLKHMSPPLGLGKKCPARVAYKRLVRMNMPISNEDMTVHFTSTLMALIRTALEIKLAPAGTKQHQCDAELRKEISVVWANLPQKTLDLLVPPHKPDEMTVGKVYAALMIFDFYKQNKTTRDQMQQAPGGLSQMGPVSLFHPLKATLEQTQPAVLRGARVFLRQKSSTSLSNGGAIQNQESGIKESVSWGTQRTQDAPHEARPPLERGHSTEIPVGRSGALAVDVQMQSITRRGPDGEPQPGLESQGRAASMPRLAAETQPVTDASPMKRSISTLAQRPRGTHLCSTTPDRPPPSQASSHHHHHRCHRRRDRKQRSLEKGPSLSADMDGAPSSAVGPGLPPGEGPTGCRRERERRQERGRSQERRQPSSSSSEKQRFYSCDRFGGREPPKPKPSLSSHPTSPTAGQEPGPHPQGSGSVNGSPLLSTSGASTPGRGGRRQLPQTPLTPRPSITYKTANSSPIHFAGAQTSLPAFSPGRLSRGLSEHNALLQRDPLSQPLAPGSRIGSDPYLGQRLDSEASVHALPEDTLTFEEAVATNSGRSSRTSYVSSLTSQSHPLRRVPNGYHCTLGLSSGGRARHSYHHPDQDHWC
T4 sequence (Q02410 whole entry, the tested form may be a part): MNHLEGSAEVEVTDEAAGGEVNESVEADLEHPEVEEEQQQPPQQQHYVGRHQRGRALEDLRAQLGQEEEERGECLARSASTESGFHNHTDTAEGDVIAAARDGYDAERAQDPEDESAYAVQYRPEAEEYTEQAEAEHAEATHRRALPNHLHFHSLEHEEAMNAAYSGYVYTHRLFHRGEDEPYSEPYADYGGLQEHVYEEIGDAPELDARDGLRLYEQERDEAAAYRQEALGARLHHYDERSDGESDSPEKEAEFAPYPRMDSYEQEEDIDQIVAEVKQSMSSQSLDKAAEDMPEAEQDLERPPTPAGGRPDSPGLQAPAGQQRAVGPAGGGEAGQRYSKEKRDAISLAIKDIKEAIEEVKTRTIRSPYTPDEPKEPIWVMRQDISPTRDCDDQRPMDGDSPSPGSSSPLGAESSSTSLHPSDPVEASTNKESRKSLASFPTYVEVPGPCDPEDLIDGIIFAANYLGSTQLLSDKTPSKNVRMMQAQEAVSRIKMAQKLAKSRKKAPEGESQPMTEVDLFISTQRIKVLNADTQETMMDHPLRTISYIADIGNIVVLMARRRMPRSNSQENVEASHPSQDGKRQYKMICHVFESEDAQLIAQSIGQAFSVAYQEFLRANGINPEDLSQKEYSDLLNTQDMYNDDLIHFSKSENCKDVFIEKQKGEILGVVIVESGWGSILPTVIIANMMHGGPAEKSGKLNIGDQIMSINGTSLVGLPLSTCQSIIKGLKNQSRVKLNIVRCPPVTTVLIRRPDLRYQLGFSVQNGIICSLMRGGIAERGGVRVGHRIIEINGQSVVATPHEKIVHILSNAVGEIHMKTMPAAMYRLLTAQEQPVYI

[8] = target: T5, Tyrosine-protein phosphatase non-receptor type 22 (Homo sapiens, UniProt Q9Y2R2); assay: LYP phosphatase inhibition for selectivity, dose response, selectivity assay for LMPTP inhibitor project, biochemical, fluorescence, LYP catalytic domain (AID 652006); type: functional; conditions: read-out: IC50_Mean
T5 sequence (Q9Y2R2 whole entry): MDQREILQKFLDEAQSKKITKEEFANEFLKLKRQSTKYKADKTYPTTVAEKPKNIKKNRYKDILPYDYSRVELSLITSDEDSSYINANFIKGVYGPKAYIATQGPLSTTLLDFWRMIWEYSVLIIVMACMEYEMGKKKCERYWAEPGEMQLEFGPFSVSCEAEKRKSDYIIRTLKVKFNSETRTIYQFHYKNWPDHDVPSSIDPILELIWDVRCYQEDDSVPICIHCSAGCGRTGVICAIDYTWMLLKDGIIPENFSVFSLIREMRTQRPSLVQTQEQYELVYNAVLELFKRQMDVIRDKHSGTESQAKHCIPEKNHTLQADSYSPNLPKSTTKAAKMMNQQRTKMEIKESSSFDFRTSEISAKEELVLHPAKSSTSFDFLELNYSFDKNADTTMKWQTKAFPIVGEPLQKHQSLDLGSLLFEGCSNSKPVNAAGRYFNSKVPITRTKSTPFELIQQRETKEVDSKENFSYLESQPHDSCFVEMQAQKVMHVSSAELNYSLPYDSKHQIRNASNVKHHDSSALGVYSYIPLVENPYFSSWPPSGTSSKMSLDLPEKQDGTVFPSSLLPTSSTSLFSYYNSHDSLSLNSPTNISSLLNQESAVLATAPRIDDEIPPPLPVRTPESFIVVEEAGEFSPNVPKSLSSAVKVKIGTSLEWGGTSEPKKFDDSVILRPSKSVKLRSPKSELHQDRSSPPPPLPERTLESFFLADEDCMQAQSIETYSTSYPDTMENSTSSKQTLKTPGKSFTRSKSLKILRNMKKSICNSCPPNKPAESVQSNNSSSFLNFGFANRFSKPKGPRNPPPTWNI

[9] = target: T6, Carboxy-terminal domain RNA polymerase II polypeptide A small phosphatase 1 (Homo sapiens, UniProt Q9GZU7); assay: inhibitors of CTDSP1, concentration-response testing, biochemical assay, absorbance-based, actives from ultra-high-throughput screening (AID 540297); type: functional
T6 sequence (Q9GZU7 whole entry): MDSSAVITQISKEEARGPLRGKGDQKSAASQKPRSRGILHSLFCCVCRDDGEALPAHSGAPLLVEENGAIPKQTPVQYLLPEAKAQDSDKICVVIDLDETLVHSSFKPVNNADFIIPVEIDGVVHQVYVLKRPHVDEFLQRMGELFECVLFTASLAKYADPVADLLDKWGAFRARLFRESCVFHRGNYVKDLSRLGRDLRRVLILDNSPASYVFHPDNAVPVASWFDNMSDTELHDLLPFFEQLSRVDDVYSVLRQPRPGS

[10] = target: T7, Low molecular weight phosphotyrosine protein phosphatase (Homo sapiens, UniProt P24666); type: functional; conditions: read-out: IC50_Mean;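 note: Dose-response confirmation assay measuring inhibition of LMPTP enzyme activity by fluorescence intensity read-out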
T7 sequence (P24666 whole entry): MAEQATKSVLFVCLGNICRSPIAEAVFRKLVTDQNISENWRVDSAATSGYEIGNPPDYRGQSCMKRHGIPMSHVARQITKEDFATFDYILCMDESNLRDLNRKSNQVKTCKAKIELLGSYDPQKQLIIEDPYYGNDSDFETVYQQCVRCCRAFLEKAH

[11] = target: DNA (cytosine-5)-methyltransferase 1 (Homo sapiens, UniProt P26358); assay: DNMT1 methyltransferase inhibitors, confirmation, biochemical, fluorescent molecular beacon (AID 602386); type: functional
[12] = target: T4, Voltage-gated N-type calcium channel alpha-1B subunit/Amyloid beta A4 precursor protein-binding family A member 1; type: protein assay; remark: listed apart in the source
[13] = target: T3, Small ubiquitin-related modifier 1; assay: inhibitors of SUMO1 partner interactions, dose response, biochemical, FRET (AID 624383); type: functional; conditions: read-out: IC50_Mean
[14] = target: T8, DNA repair protein RAD52 homolog (Homo sapiens, UniProt P43351); type: functional, biochemical
T8 sequence (P43351 whole entry): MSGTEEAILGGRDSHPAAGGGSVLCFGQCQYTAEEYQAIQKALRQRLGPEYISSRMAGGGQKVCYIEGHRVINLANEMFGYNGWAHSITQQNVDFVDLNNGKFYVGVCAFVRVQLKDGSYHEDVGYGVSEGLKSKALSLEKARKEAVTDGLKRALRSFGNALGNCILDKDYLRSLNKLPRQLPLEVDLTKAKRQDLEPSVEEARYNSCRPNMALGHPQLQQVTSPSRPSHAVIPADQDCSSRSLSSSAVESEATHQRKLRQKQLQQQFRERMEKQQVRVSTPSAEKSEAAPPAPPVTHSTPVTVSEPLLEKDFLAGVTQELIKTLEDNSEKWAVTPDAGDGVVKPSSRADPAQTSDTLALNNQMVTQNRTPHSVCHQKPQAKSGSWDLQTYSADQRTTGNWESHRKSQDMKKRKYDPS

[15] = target: T9, DNA repair and recombination protein RAD54-like (Homo sapiens, UniProt Q92698); assay: inhibitors of human RAD54 branch migration, confirmation, biochemical, fluorescence, cherry-picked samples, dose series (AID 651657); type: functional
T9 sequence (Q92698 whole entry): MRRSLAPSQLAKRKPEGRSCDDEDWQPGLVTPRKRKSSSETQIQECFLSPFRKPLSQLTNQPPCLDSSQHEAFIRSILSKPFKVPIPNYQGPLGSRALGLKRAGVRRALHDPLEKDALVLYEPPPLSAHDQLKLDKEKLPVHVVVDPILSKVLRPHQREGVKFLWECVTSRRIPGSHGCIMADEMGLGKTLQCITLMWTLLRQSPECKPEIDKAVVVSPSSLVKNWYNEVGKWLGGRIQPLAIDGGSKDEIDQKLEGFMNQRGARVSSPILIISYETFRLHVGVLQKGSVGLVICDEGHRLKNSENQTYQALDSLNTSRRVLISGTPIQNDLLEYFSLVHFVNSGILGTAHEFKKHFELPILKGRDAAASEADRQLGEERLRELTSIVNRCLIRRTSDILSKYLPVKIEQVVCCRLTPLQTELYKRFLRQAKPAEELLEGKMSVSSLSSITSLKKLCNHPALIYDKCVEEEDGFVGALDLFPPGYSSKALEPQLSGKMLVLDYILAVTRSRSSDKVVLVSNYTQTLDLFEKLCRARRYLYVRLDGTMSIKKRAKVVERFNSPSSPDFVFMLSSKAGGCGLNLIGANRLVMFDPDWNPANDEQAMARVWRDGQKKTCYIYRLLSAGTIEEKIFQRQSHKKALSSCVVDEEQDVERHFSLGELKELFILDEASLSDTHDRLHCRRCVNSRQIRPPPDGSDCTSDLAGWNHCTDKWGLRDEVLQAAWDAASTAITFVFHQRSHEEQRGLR

[16] = MDA-MB-231 cell growth inhibition, dose response, cytotoxicity control for RAD54 inhibitor project, CellTiter-Glo luminescence, cherry-pick (AID 651692); type: functional, cell-based
[17] = THP-1 cell cytotoxicity, cytotoxicity control, set 4 (AID 504911); type: functional; conditions: Mycobacterium tuberculosis
[18] = Vero cell cytotoxicity, cytotoxicity control for M. tuberculosis inhibitor project, purified and synthesized samples, set 3 (AID 504684); type: functional
[19] = Fluorescence-based cell-based high throughput dose response assay for inhibitors of the interaction of nucleotide-binding oligomerization domain containing 2 (NOD2) and the receptor-interacting serine-threonine kinase 2 (RIPK2).; type: functional; conditions: Homo sapiens
Beta Lactamase = Beta Lactamase (Pseudomonas aeruginosa, UniProt Q932Y6); assay: beta-lactamase reporter inhibitor potency, dose response, artefact control for NOD2-RIPK2 interaction inhibitor project, BLA reporter cells, FRET fluorescence (AID 651552); type: functional, cell-based
Sequence of Beta Lactamase (Q932Y6 whole entry, the tested form may be a part): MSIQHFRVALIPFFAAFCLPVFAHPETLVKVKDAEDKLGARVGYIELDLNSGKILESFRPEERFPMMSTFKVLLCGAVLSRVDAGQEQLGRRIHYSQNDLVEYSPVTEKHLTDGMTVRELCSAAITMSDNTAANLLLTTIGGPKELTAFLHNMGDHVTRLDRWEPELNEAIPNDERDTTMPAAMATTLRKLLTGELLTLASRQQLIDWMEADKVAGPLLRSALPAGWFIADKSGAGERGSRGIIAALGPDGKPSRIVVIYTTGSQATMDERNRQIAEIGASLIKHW

Fatty acid synthase = Fatty acid synthase (Homo sapiens, UniProt P49327); assay: FAS thioesterase domain inhibitors, dose response, biochemical, kinetic fluorescence intensity (AID 624326); type: functional;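 note: rate of fluorescence rise from hydrolysis of a fluorogenic O-methyl fluorescein ester substrate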
[20] = target: Hepatocyte nuclear factor 4-alpha (Homo sapiens, UniProt P41235); type: functional, cell-based;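 note: biochemical luminescence-based dose-response counterscreen measuring inhibition of HNF4 dimerization, run alongside a screen for blockers of ABHD5–perilipin-5 interaction; split luciferase complementation of HNF4 fusion proteins in cell lysate measuring dimerization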
Sequence of Hepatocyte nuclear factor 4-alpha (P41235 whole entry, the tested form may be a part): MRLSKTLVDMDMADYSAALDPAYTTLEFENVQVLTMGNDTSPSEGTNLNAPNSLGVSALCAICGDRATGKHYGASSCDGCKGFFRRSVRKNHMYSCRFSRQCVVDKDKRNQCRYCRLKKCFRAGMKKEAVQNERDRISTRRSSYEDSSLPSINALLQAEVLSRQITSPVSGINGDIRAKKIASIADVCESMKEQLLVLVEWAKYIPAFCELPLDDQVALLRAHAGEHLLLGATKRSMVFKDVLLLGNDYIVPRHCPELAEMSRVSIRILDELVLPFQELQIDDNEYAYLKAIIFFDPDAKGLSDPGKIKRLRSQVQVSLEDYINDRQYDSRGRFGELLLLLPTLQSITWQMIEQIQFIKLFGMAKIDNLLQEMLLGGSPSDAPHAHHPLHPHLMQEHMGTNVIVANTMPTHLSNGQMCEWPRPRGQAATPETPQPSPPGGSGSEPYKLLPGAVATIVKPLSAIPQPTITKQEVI

O=[N+]([O-])c1cc(C(F)(F)F)cc([N+](=O)[O-])c1N1CCCNCC1
IC50 [1]: 10.2 µM (active)
IC50 [2]: 4.01 µM (active)

COc1ccc(C(=O)NCCC2=CCCCC2)cc1OC1CCN(C(C)C)CC1
IC50 [1]: 2.63 µM (active)
IC50 [3]: 16 µM (active)
IC50 [2]: 3.16 µM (active)

C#CCOCCOCCOCCNc1nc(N2CCN(C(=O)[C@H](CCCCN)n3cc([C@@H](N)CO)nn3)CC2)nc(N2CCN(C(=O)[C@H](Cc3ccc(O)cc3)n3cc([C@@H](N)CC(C)C)nn3)CC2)n1
AC50 [4]: 121 µM (active)

Cc1sc2ncnc(NCC(O)c3ccccc3)c2c1C (stereo unspecified)
IC50 [5]: 20.9 µM (inactive)
AC50 (INS1): 5.29 µM (active)

Nc1nccc(-c2ccc(-n3cnc4ccccc43)cc2)n1
IC50 (Interleukin-8): 10.2 µM (inactive)

CCOC(=O)c1cc(-c2ccc(N3CCOCC3)cc2)nn1-c1ccccc1C(=O)O
IC50 [6]: > 66.6 µM (inactive)
IC50 [7]: 5.98 µM (active)
IC50 [8]: 8.42 µM (active)
IC50 [9]: 5.98 µM (active)
IC50 [10]: 12.3 µM (active)
IC50 [11]: 6.99 µM (active)
IC50 [12]: > 50 µM (inactive)
IC50 [13]: 1.51 µM (active)

COc1cc(C(=O)NC2CCN(C)CC2)ccc1Nc1ncc2c(n1)N(C1CCCCC1)CCC(=O)N2C
AC50 [14]: 5.86 µM (active)
AC50 [15]: 12 µM (active)
AC50 [16]: 32.5 µM (active)

Cc1[nH]c(SCc2ccccc2Cl)nc(=O)c1C
CC50 [17]: > 100 µM (active)
CC50 [18]: > 100 µM (active)

CCOC(=O)[C@]12Cc3ccccc3[C@H]1N(C1CCCCC1)C(=O)c1cc(OC)ccc12
IC50 [19]: 2.28 µM (active)
IC50 (Beta Lactamase): 48 µM (inactive)
IC50 (Fatty acid synthase): 8.19 µM (active)

CCC(c1nc2ccccc2[nH]1)n1c(=O)c(-c2ccco2)nc2ccccc21 (stereo unspecified)
IC50 [20]: 3.79 µM (active)
